Columns and labels:
[1] = Compound cytotoxicity, XTT-based colorimetric assay; type: cell-based; conditions: human, uninfected MT2 cells, day 4, XTT
Outline: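 Run under the antiviral-assay protocol but without virus. Viability was read on day 4 and CC50 values were derived from the readout.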

[2] = test system: recombinant NL4-3 virus (nef section replaced with Renilla luciferase gene) in MT-2 cells; assay: HIV cell culture assay (antiviral activity, luciferase readout); type: cell-based; conditions: Renilla, NL43, MT-2 cells infected for 4-5 days with recombinant NL4-3 Renilla luciferase virus, serial dilutions of compound
Outline: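 EC50 was derived by median-effect curve fitting of luciferase activity. The signal comes from MT-2 cells infected for 4–5 days with 293T-produced NL4-3 reporter virus, nef partly replaced by Renilla luciferase, in the presence of serially diluted compound.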

Structure (SMILES)	CC50 at 4 day [1]	EC50 [2]
CCS(=O)(=O)c1ccccc1-c1ccc2c(=O)n(-c3ccc(Cl)c4c(NS(C)(=O)=O)nn(C)c34)c([C@H](Cc3cc(F)cc(F)c3)NC(=O)Cn3nc(C(F)F)c4c3C(F)(F)[C@@H]3C[C@H]43)nc2c1 (atropisomer, axis not shown; (aR)) [Example 119, N-((S)-1-(3-(4-chloro-1-methyl-3-(methylsulfonamido)-1H-indazol-7-yl)-7-(2-(ethylsulfonyl)phenyl)-4-oxo-3,4-dihydroquinazolin-2-yl)-2-(3,5-difluorophenyl)ethyl)-2-((3bS,4aR)-3-(difluoromethyl)-5,5-difluoro-3b,4,4a,5-tetrahydro-1H-cyclopropa[3,4]cyclopenta[1,2-c]pyrazol-1-yl)acetamide]	> 500000 pM	100 pM
CC(C)S(=O)(=O)c1ccccc1-c1ccc2c(=O)n(-c3ccc(Cl)c4c(NS(C)(=O)=O)nn(C)c34)c([C@H](Cc3cc(F)cc(F)c3)NC(=O)Cn3nc(C(F)F)c4c3C(F)(F)[C@@H]3C[C@H]43)nc2c1 (atropisomer, axis not shown; (aR)) [Example 120, N-((S)-1-(3-(4-chloro-1-methyl-3-(methylsulfonamido)-1H-indazol-7-yl)-7-(2-(isopropylsulfonyl)phenyl)-4-oxo-3,4-dihydroquinazolin-2-yl)-2-(3,5-difluorophenyl)ethyl)-2-((3bS,4aR)-3-(difluoromethyl)-5,5-difluoro-3b,4,4a,5-tetrahydro-1H-cyclopropa[3,4]cyclopenta[1,2-c]pyrazol-1-yl)acetamide]	> 500000 pM	130 pM
CCS(=O)(=O)c1cccc(-c2ccc3c(=O)n(-c4ccc(Cl)c5c(NS(C)(=O)=O)nn(C)c45)c([C@H](Cc4cc(F)cc(F)c4)NC(=O)Cn4nc(C(F)F)c5c4C(F)(F)[C@@H]4C[C@H]54)nc3c2)c1 (atropisomer, axis not shown; (aR)) [Example 121, N-((S)-1-(3-(4-chloro-1-methyl-3-(methylsulfonamido)-1H-indazol-7-yl)-7-(3-(ethylsulfonyl)phenyl)-4-oxo-3,4-dihydroquinazolin-2-yl)-2-(3,5-difluorophenyl)ethyl)-2-((3bS,4aR)-3-(difluoromethyl)-5,5-difluoro-3b,4,4a,5-tetrahydro-1H-cyclopropa[3,4]cyclopenta[1,2-c]pyrazol-1-yl)acetamide]	> 500000 pM	110 pM
CCCS(=O)(=O)c1cccc(-c2ccc3c(=O)n(-c4ccc(Cl)c5c(NS(C)(=O)=O)nn(C)c45)c([C@H](Cc4cc(F)cc(F)c4)NC(=O)Cn4nc(C(F)F)c5c4C(F)(F)[C@@H]4C[C@H]54)nc3c2)c1 (atropisomer, axis not shown; (aR)) [Example 122, N-((S)-1-(3-(4-chloro-1-methyl-3-(methylsulfonamido)-1H-indazol-7-yl)-4-oxo-7-(3-(propylsulfonyl)phenyl)-3,4-dihydroquinazolin-2-yl)-2-(3,5-difluorophenyl)ethyl)-2-((3bS,4aR)-3-(difluoromethyl)-5,5-difluoro-3b,4,4a,5-tetrahydro-1H-cyclopropa[3,4]cyclopenta[1,2-c]pyrazol-1-yl)acetamide]	> 500000 pM	170 pM
CC(C)S(=O)(=O)c1cccc(-c2ccc3c(=O)n(-c4ccc(Cl)c5c(NS(C)(=O)=O)nn(C)c45)c([C@H](Cc4cc(F)cc(F)c4)NC(=O)Cn4nc(C(F)F)c5c4C(F)(F)[C@@H]4C[C@H]54)nc3c2)c1 (atropisomer, axis not shown; (aR)) [Example 123, N-((S)-1-(3-(4-chloro-1-methyl-3-(methylsulfonamido)-1H-indazol-7-yl)-7-(3-(isopropylsulfonyl)phenyl)-4-oxo-3,4-dihydroquinazolin-2-yl)-2-(3,5-difluorophenyl)ethyl)-2-((3bS,4aR)-3-(difluoromethyl)-5,5-difluoro-3b,4,4a,5-tetrahydro-1H-cyclopropa[3,4]cyclopenta[1,2-c]pyrazol-1-yl)acetamide]	> 500000 pM	150 pM
CS(=O)(=O)Nc1nn(CC(F)F)c2c(-n3c([C@H](Cc4cc(F)cc(F)c4)NC(=O)Cn4nc(C(F)F)c5c4C(F)(F)[C@@H]4C[C@H]54)nc4cc(-c5ncccn5)ccc4c3=O)ccc(Cl)c12 (atropisomer, axis not shown; (aR)) [Example 124, N-((S)-1-(3-(4-chloro-1-(2,2-difluoroethyl)-3-(methylsulfonamido)-1H-indazol-7-yl)-4-oxo-7-(pyrimidin-2-yl)-3,4-dihydroquinazolin-2-yl)-2-(3,5-difluorophenyl)ethyl)-2-((3bS,4aR)-3-(difluoromethyl)-5,5-difluoro-3b,4,4a,5-tetrahydro-1H-cyclopropa[3,4]cyclopenta[1,2-c]pyrazol-1-yl)acetamide]	> 500000 pM	58 pM
Cc1nccnc1-c1ccc2c(=O)n(-c3ccc(Cl)c4c(NS(C)(=O)=O)nn(CC(F)F)c34)c([C@H](Cc3cc(F)cc(F)c3)NC(=O)Cn3nc(C(F)F)c4c3C(F)(F)[C@@H]3C[C@H]43)nc2c1 (atropisomer, axis not shown; (aR)) [Example 125, N-((S)-1-(3-(4-chloro-1-(2,2-difluoroethyl)-3-(methylsulfonamido)-1H-indazol-7-yl)-7-(3-methylpyrazin-2-yl)-4-oxo-3,4-dihydroquinazolin-2-yl)-2-(3,5-difluorophenyl)ethyl)-2-((3bS,4aR)-3-(difluoromethyl)-5,5-difluoro-3b,4,4a,5-tetrahydro-1H-cyclopropa[3,4]cyclopenta[1,2-c]pyrazol-1-yl)acetamide]	> 500000 pM	54 pM
Cc1nccnc1-c1ccc2c(=O)n(-c3ccc(Cl)c4c(NS(=O)(=O)C5CC5)nn(CC(F)F)c34)c([C@H](Cc3cc(F)cc(F)c3)NC(=O)Cn3nc(C(F)F)c4c3C(F)(F)[C@@H]3C[C@H]43)nc2c1 (atropisomer, axis not shown; (aR)) [Example 126, N-((S)-1-(3-(4-chloro-3-(cyclopropanesulfonamido)-1-(2,2-difluoroethyl)-1H-indazol-7-yl)-7-(3-methylpyrazin-2-yl)-4-oxo-3,4-dihydroquinazolin-2-yl)-2-(3,5-difluorophenyl)ethyl)-2-((3bS,4aR)-3-(difluoromethyl)-5,5-difluoro-3b,4,4a,5-tetrahydro-1H-cyclopropa[3,4]cyclopenta[1,2-c]pyrazol-1-yl)acetamide]	> 500000 pM	52 pM
O=C(Cn1nc(C(F)F)c2c1C(F)(F)[C@@H]1C[C@H]21)N[C@@H](Cc1cc(F)cc(F)c1)c1nc2cc(-c3ncccn3)ccc2c(=O)n1-c1ccc(Cl)c2c(NS(=O)(=O)C3CC3)nn(CC(F)F)c12 (atropisomer, axis not shown; (aR)) [Example 127, N-((S)-1-(3-(4-chloro-3-(cyclopropanesulfonamido)-1-(2,2-difluoroethyl)-1H-indazol-7-yl)-4-oxo-7-(pyrimidin-2-yl)-3,4-dihydroquinazolin-2-yl)-2-(3,5-difluorophenyl)ethyl)-2-((3bS,4aR)-3-(difluoromethyl)-5,5-difluoro-3b,4,4a,5-tetrahydro-1H-cyclopropa[3,4]cyclopenta[1,2-c]pyrazol-1-yl)acetamide]	> 500000 pM	59 pM
Cc1cc(C)nc(-c2ccc3c(=O)n(-c4ccc(Cl)c5c(NS(C)(=O)=O)nn(CC(F)F)c45)c([C@H](Cc4cc(F)cc(F)c4)NC(=O)Cn4nc(C(F)F)c5c4C(F)(F)[C@@H]4C[C@H]54)nc3c2)n1 (atropisomer, axis not shown; (aR)) [Example 128, N-((S)-1-(3-(4-chloro-1-(2,2-difluoroethyl)-3-(methylsulfonamido)-1H-indazol-7-yl)-7-(4,6-dimethylpyrimidin-2-yl)-4-oxo-3,4-dihydroquinazolin-2-yl)-2-(3,5-difluorophenyl)ethyl)-2-((3bS,4aR)-3-(difluoromethyl)-5,5-difluoro-3b,4,4a,5-tetrahydro-1H-cyclopropa[3,4]cyclopenta[1,2-c]pyrazol-1-yl)acetamide]	> 500000 pM	69 pM
Cc1cc(C)nc(-c2ccc3c(=O)n(-c4ccc(Cl)c5c(NS(=O)(=O)C6CC6)nn(CC(F)F)c45)c([C@H](Cc4cc(F)cc(F)c4)NC(=O)Cn4nc(C(F)F)c5c4C(F)(F)[C@@H]4C[C@H]54)nc3c2)n1 (atropisomer, axis not shown; (aR)) [Example 129, N-((S)-1-(3-(4-chloro-3-(cyclopropanesulfonamido)-1-(2,2-difluoroethyl)-1H-indazol-7-yl)-7-(4,6-dimethylpyrimidin-2-yl)-4-oxo-3,4-dihydroquinazolin-2-yl)-2-(3,5-difluorophenyl)ethyl)-2-((3bS,4aR)-3-(difluoromethyl)-5,5-difluoro-3b,4,4a,5-tetrahydro-1H-cyclopropa[3,4]cyclopenta[1,2-c]pyrazol-1-yl)acetamide]	> 500000 pM	95 pM
Cc1ncc(-c2ccc3c(=O)n(-c4ccc(Cl)c5c(NS(C)(=O)=O)nn(C)c45)c([C@H](Cc4cc(F)cc(F)c4)NC(=O)Cn4nc(C(F)F)c5c4C(F)(F)[C@@H]4C[C@H]54)nc3c2)cn1 (atropisomer, axis not shown; (aR)) [Example 130, N-((S)-1-(3-(4-chloro-1-methyl-3-(methylsulfonamido)-1H-indazol-7-yl)-7-(2-methylpyrimidin-5-yl)-4-oxo-3,4-dihydroquinazolin-2-yl)-2-(3,5-difluorophenyl)ethyl)-2-((3bS,4aR)-3-(difluoromethyl)-5,5-difluoro-3b,4,4a,5-tetrahydro-1H-cyclopropa[3,4]cyclopenta[1,2-c]pyrazol-1-yl)acetamide]	> 500000 pM	30 pM

— US11505543B2, “4-oxo-3,4-dihydroquinazoline compounds as inhibitors of human immunodeficiency virus replication” (VIIV HEALTHCARE UK (NO.5) LIMITED, priority 2018, dated 2022)
